{
  "source": "patent US20240181000A1",
  "about": "“LGG-DERIVED PEPTIDES AND METHODS OF USE THEREOF” (Ohio State Innovation Foundation, priority 2021, published 2024)",
  "key": {"[1]": {"tested_on": "Salmonella enterica subsp. enterica serovar Enteritidis (SE)", "assay_type": "cell-based", "conditions": "No treatment", "description": "MIC was determined by selecting peptide concentration at which there is no increased growth (no increase in OD), given indication of no ST growth. An independent repeat experiment was conducted.\nHeat and protease tolerance of peptides: P1, P2, and P4 were heated for 6 minutes at 86° C. or treated with protease proteinase K, 200 μg/mL at 50° C. for 30 minutes. After which, the treated and/or heated peptides at their respective MICs were evaluated in the inhibition assay with Salmonella. The protocol from above was repeated in the Tecan with the same controls.\nTo analyze the perceived efficacy of arginine and lysine substitutes reported in previous studies, specific amino acid residues in P1 and P2 were replaced with lysine or arginine to test if the alliterations enhanced anti-Salmonella (ST and SE) activity. The MICs of the arginine or lysine substituted peptides ([…] (SEQ ID NO:37), […] (SEQ ID NO:38), […] (SEQ ID NO:39), KDENK (SEQ ID NO:41), PDEKK (SEQ ID NO:42), KDEKK (SEQ ID NO:43), KHTAPK (SEQ ID NO:45)) were determined as described early. Two independent experiments were conducted to ensure accuracy."}, "[2]": {"tested_on": "APEC", "description": "FIGS. 58A-58B show the APEC load after treatment 8 days dpi with LGG and 50 mg/mL of peptides in drinking water."}, "[3]": {"tested_on": "S. typhimurium", "assay": "P1 and P2 in drinking water, S. typhimurium infected chickens", "assay_type": "in vivo", "conditions": "100 mg/L in drinking water, 7 dpi", "description": "Both the P1 and P2 at 200 mg/L and 100 mg/L concentrations reduced S. typhimurium colonization by 0.78 (p<0.05) and 0.69 (p<0.05) log CFU/gm, respectively."}, "[4]": {"tested_on": "APEC O78", "assay": "Efficacy in wax moth larvae model", "assay_type": "in vivo, Galleria mellonella", "description": "Efficacy and toxicity of peptides in wax moth (Galleria mellonella) larvae model: To measure the efficacy and toxicity of peptides (P1, P2, and P3) in vivo, wax moth larvae model was used as described previously. Wax moth larvae were obtained from Vanderhorst Wholesale, Inc. (Saint Marys, OH) and were kept at 37° C. overnight before use. Healthy larvae (creamy color with no blackening) were selected and kept in sterile petri dishes before inoculation. For toxicity evaluation, larvae (n=10/group) were injected with 25.5 mM of peptides (dissolved in sterile water containing DMSO) through last left pro-leg using PB600-1 repeating dispenser (Hamilton) attached to insulin syringe (ReliOn; 31 gauze, 8 mm needle length). The injected larvae were incubated for 72 h at 37° C., and mortality was recorded every 12 h.\nFor efficacy evaluation, larvae (n=15/group) were pretreated (as above) and infected with rifampicin resistant (Rif) APEC O78 (2.3×10^4 CFU/larva) through last right pro-leg within 30 mins of treatment. The larvae were incubated at 37° C. for 72 h and mortality was recorded as above. […] The statistical significance (P<0.05) of treatments on survival of larvae and APEC load inside larvae was calculated using log-rank test and one-way ANOVA followed by Tukey's post-hoc test, respectively."}, "[5]": {"tested_on": "OmpC", "assay": "Immunoblot analysis", "assay_type": "cell-based, E. coli", "conditions": "densitometry", "description": "(§1) Immunoblot analysis: To corroborate the findings of gene expression study, level of OmpC and MlaA proteins upon peptides (P1, P2, and P3) treatment was investigated as described previously. Peptides treated culture of APEC O78 was prepared as above and DMSO treated culture was used as control. Post-treatment, the fractions of cytoplasmic and membrane proteins was prepared using ultracentrifugation as previously described. The concentrations of fractionated membrane proteins were then normalized based on 280 nm and separated on a 12% SDS-PAGE. For immunoblot analysis, membrane proteins (25 μg) resolved on SDS-PAGE above were electrotransferred onto an Immuno-Blot® PVDF Membrane (Bio-Rad) and probed for OmpC and MlaA using anti-OmpC (1:2,000) (ThermoFisher Scientific) and anti-MlaA (1:15,000; Dr. Thomas J. Silhavy) polyclonal antibodies and goat anti-rabbit IgG HRP-conjugated secondary antibody (Sigma-Aldrich). The membrane was developed with Clarity Western ECL Substrate (Bio-Rad) and visualized in a FluorChem Q (proteinsimple) imager. The density of OmpC and MlaA proteins was quantified using ImageJ software."}, "[6]": {"tested_on": "MlaA", "assay": "Immunoblot analysis", "assay_type": "cell-based, E. coli", "conditions": "densitometry", "description": "as §1"}},
  "note": "No end group written: not given here.",
  "data": [
    {"substance": "PDENK [Peptide P2, PDENK]", "values": [
      {"measurement": "MIC against SE", "setting": "[1]", "result": 15, "unit": "mM"},
      {"measurement": "Reduction of APEC colonization in ceca", "setting": "[2]; LGG and 50 mg/mL of peptides in drinking water, 8 days dpi", "result": 1.02, "unit": "Log CFU/gm"},
      {"measurement": "Bodyweight", "setting": "[2]; in vivo", "result": "no significant effect"},
      {"measurement": "Reduction of S. typhimurium colonization in ceca", "setting": "[3]", "result": 0.69, "unit": "log CFU/gm"},
      {"measurement": "APEC load in the larvae", "setting": "[4]; 72 h post-infection, untreated 7.4±3.1 log CFU/larva", "result": "no APEC was isolated"},
      {"measurement": "Larval mortality", "setting": "[4]; pretreated with 25.5 mM, 72 h, untreated 73.34%", "result": 26.67, "unit": "%"},
      {"measurement": "OmpC level lower than in untreated APEC", "setting": "[5]", "result": 9.27, "unit": "folds"},
      {"measurement": "MlaA level decreased vs untreated APEC", "setting": "[6]", "result": 1.40, "unit": "folds"}
    ]}
  ]
}
